Test results reported in US20110151529A1, “METHODS AND PROCESSES FOR PRODUCING ORGANIC ACIDS” (THE OHIO STATE UNIVERSITY, priority 2008, published 2011).

Test system: C. tyrobutyricum adapted culture from the FBB
Type: cell-based, Clostridium tyrobutyricum
Conditions: butyrate concentration increased from nil to 30 g/L

CCCC(=O)O [butyric acid]
growth ability retained: more than 50%
